# Laboratory results taken from PMC12400753 (Respiratory Research, 2025).
# How the values were obtained:
# human LPAR2 = molecular target: T1, human LPAR2 (Homo sapiens, UniProt Q9HBW0); assay: LPA-induced calcium mobilization in transiently transfected HEK293T cells; format: cell-based; conditions: empirically determined, used for stimulation
# T1 construct: host or cells: HEK293T
# Experimental: (§1) We had previously assessed selectivity against LPAR2 and 3 [11]. […] Human LPAR1-6 plasmids were each transiently transfected into HEK293T cells and the EC80 (effective concentration producing 80% maximal effect) for LPA activation empirically determined. Selectivity was then tested in a concentration response paradigm using a 3 h preincubation followed by LPA-induced calcium mobilization.
# (§2) Plasmids containing human LPAR1-6 were obtained from Origene (Rockville, MD) and maxiprepped at Eton Biosciences (San Diego, CA). Transfection mix was prepared by adding Fugene 6 transfection mix to serum free media and 0.1 µg plasmid. After a 20 m incubation, HEK293T cells (ATCC, Manassas VA) were lifted with Accutase and added to the Fugene mix at a final concentration of 0.5 × 10^4 cells/well. Cells were then plated on black clear bottom 96-well plates and incubated overnight in a 37 °C, 5% CO2 incubator. […] During the last hour of incubation, media was removed and replaced with Fluo-4 NW calcium assay dye prepared as per manufacturer’s recommendations in assay buffer. Agonist plates containing LPA were prepared for individual receptor subytpes using their respective EC80. Calcium mobilization was measured as per manufacturer’s directions on a Flexstation 3 (Molecular Devices, San Jose, CA).
# human LPAR3 = molecular target: T2, human LPAR3 (Homo sapiens, UniProt Q9UBY5); assay: as above; format: cell-based; conditions: empirically determined, used for stimulation
# T2 construct: host or cells: HEK293T
# T2 sequence (Q9UBY5 1-353): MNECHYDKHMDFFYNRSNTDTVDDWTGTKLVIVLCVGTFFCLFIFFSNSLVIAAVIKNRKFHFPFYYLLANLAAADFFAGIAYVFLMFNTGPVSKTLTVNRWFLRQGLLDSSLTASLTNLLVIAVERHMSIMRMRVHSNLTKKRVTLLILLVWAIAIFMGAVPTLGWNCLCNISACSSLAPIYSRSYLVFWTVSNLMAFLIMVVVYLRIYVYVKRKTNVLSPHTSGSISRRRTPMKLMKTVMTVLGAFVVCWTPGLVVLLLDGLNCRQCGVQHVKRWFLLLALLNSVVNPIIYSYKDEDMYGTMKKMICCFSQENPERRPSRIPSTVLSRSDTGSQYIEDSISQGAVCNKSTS
# Experimental: as §1, §2
# human LPAR4 = molecular target: T3, human LPAR4 (Homo sapiens, UniProt Q99677); assay: as above; format: cell-based; conditions: empirically determined, used for stimulation
# T3 construct: host or cells: HEK293T
# Experimental: as §1, §2
# human LPAR5 = molecular target: T4, human LPAR5 (Homo sapiens, UniProt Q9H1C0); assay: as above; format: cell-based; conditions: empirically determined, used for stimulation
# T4 construct: host or cells: HEK293T
# Experimental: as §1, §2
# human LPAR6 = molecular target: T5, human LPAR6 (Homo sapiens, UniProt P43657); assay: as above; format: cell-based; conditions: empirically determined, used for stimulation
# T5 construct: host or cells: HEK293T
# T5 sequence (P43657 1-344): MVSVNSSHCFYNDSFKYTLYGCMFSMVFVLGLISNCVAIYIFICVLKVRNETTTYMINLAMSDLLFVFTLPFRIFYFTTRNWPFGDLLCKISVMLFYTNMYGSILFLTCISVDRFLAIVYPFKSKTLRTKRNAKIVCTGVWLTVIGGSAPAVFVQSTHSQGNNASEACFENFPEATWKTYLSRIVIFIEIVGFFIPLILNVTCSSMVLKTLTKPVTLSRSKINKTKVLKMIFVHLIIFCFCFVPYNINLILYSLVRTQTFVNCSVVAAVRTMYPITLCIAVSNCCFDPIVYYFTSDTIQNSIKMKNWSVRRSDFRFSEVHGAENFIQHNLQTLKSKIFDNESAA
# Experimental: as §1, §2
# LPAR1 = LPAR1 (Homo sapiens, UniProt Q92633); assay: as above; format: cell-based; design: host or cells: HEK293T; conditions: empirically determined, used for stimulation
# Experimental: as §1, §2
# [1] = system: human precision cut lung slices from donors with pulmonary fibrosis; assay: Fibrotic marker mRNA (qPCR) in cryopreserved PCLS from donors with pulmonary fibrosis; format: cell-based; conditions: 6 days
# Text: Slices were snap frozen and processed for transcript analysis by quantitative PCR. […] Concurrently, we evaluated two well-established, clinical stage antifibrotic mechanisms in this setting: an αvβ1/6 inhibitor (bexotegrast, PLN-74809) and a PDE4B inhibitor (nerandomilast, BI 1015550).
# Precision cut lung slices were obtained from Anabios (San Diego, CA) and collected in accordance with their ethics policy (https://anabios.com/ethics-statement/). Donor demographics are available in Additional File 1. Slices were thawed as per vendor instructions. Briefly, PCLS were thawed at 37 °C then transferred to media consisting of DMEM/F12, Antibiotic-Antimytotic, and Penicillin-Streptomycin. PCLS were gently rinsed then transferred to a larger dish. A small tissue sample was excised with a scalpel for immunohistochemistry and qPCR characterization. […] Final concentration of DMSO was 0.1%. Media and compound were replaced every two days for a total of 6 days. At the end of the experiment, slices were collected and snap frozen. Quantitative PCR: RNA was extracted using RNEasy columns. RNA was reverse transcribed using qScript XLT per manufacturer’s instructions. Genes of interest were assessed by qPCR using Perfecta SYBR Green on a StepOne Plus Thermocycler (ABI). Parameters were as follows: 95 °C 30 s, then 45 cycles of 95 °C for 5 s and 60 °C for 30 s.
# [2] = system: fresh human PCLS from donors with pulmonary fibrosis; assay: Secreted biomarkers in fresh PCLS from pulmonary fibrosis donors; format: cell-based; conditions: nintedanib 300 nM; 48 h
# Text: Translationally, biomarker-based strategies for assessing aberrant extracellular matrix deposition and remodeling in the context of disease pathogenesis and compound efficacy have become increasingly relevant. For the PCLS gene expression studies, slices were preserved through slow cryogenic freezing of tissue. While this affords experimental flexibility, some physiological relevance is lost over the course of cryostorage and recovery (e.g., immune cell loss). To circumvent this, fresh PCLS from two donors with pulmonary fibrosis were generated and immediately placed into culture. For this experiment, well-established, secreted fibrotic markers that encompass fibrogenesis and tissue remodeling were measured: C3M (a marker of collagen III degradation and an indicant of ECM remodeling and tissue turnover), Pro-C3 (a neo-epitope fragment of collagen III and a marker of active fibrogenesis and fibrosis progression), and Pro-C6 (a neoepitope fragment of COLVIA3 and a marker of remodeling and wound healing). […] Media was then removed and analyzed for biomarker concentration.
# PCLS cultures for secreted biomarker analysis were performed at Fraunhofer ITEM (Hanover, Germany) using tissue from pathologist qualified, pulmonary fibrosis patients. Tissue from individual donors and 2 lung regions were collected in accordance with policies approved by the Hanover Medical School ethics committee. Only fibrotic tissue was used for experiments. Region 1 consisted of subpleural tissue and Region 2 of central tissue. For each, lung lobes were filled with low-melting agarose then sectioned at 300 μm on a Krumdiek tissue slicer as described in Hesse et al., 2022. Slices were incubated in DMEM containing penicillin and streptomycin, two slices per region were used. […] Supernatant was collected and shipped to Nordic Bioscience (Herlev, Denmark) for C3M, Pro-C6 and Pro-C3 analysis. Donor information can be found in Additional File 1.
# [3] = system: bleomycin-induced lung fibrosis; assay: Systemic (subcutaneous) bleomycin mouse model; format: in vivo; conditions: 30 mg/kg oral twice a day, therapeutic
# Experimental: Mice were injected subcutaneously with bleomycin (0.1 units/day), on a schedule of 5 days on/2 days off to induce fibrosis. […] Dosing was maintained until study end, at which point lung tissues were collected. The right lobe was snap frozen and processed for collagen analysis for hydroxyproline; the left lobe was sectioned and stained with Masson’s trichrome stain for histological assessment of tissue collagen. This study was conducted by Inotiv (West Lafayette, IN). Forty-four female 9 week old C57Bl/6 mice (Jackson Labs) were provided standard chow (Envigo, Cat #: 8940), housed under standard conditions, and allowed to acclimate for > 3 days prior to enrollment. Prior to start, mice were weighed and placed into balanced enrollment groups. Four days prior to start, mice were anesthetized, dorsal fur shaved and removed with depilatory agent, and two circles (~ 1.5 cm diameter) heat-branded on their dorsal abdomen. Fur was removed as needed for the balance of the study to ensure consistent location of s.c. injections. Beginning on day 0 and through day 26, mice were anesthetized with isoflurane and administered 0.9% NaCl or bleomycin injections (100 µl/injection, s.c.) into each of the circles (2 injections/mouse/d) on a 5 day on/2 day off paradigm. Mice were administered 0.9% NaCl (vehicle) or bleomycin (0.1 U) with bleomycin doses split evenly between the two circles (i.e., 0.05 U/circle). […] Weight measures and health observations were made daily. On day 27, mice were dosed to enable trough blood/plasma collection on day 28, which was collected via retro-orbital approach under isoflurane anesthesia. Following blood collection, mice were administered vehicle or compound on a timetable as appropriate to enable a peak blood collection 2 h postdose. At the time of sacrifice, mice were anesthetized with pentobarbital, a tracheotomy performed and interfaced with a positive pressure ventilator providing 100% O2. The mouse’s chest was then opened, and a needle interfaced with an infusion pump introduced to the right ventricle. […] The lungs were then harvested, immediately immersed in ice-cold 0.9% NaCl, gross dissected and subjected to morphological analyses. Tissue samples will be processed for biochemical and/or histological analyses as described below. Masson’s Trichrome Blue stained slides were subjected to histological analyses using color segmentation analysis for lung fibrosis. Frozen lung samples underwent hydroxyproline analysis as described below. Lung tissue processing – following exsanguination and flushing of the pulmonary circulation to clear blood, the lungs were removed, placed in ice-cold 0.9% NaCl and processed on wet ice. Extraneous tissue was removed and whole lung weight recorded. […]
# Chain of LPAR1 (Q92633 whole entry): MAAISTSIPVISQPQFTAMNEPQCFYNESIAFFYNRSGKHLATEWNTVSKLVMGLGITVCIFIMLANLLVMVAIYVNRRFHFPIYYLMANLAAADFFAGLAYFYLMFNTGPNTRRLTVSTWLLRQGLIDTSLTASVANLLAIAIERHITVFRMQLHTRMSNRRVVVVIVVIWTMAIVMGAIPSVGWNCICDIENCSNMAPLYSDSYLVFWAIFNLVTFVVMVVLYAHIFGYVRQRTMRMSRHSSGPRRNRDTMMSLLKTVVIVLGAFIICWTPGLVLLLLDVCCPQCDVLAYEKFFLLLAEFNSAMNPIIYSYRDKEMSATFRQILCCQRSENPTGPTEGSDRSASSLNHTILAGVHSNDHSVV
# T1 sequence (Q9HBW0 whole entry): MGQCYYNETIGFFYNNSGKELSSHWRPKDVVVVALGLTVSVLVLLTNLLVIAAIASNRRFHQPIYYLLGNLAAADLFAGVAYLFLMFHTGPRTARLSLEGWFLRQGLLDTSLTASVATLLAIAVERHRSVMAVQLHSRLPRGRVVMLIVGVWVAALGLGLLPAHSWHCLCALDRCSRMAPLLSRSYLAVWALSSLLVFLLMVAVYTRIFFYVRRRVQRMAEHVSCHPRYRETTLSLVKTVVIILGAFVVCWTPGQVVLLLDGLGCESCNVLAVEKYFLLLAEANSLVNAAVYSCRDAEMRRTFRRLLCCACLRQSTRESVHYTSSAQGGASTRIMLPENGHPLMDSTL
# T3 sequence (Q99677 whole entry): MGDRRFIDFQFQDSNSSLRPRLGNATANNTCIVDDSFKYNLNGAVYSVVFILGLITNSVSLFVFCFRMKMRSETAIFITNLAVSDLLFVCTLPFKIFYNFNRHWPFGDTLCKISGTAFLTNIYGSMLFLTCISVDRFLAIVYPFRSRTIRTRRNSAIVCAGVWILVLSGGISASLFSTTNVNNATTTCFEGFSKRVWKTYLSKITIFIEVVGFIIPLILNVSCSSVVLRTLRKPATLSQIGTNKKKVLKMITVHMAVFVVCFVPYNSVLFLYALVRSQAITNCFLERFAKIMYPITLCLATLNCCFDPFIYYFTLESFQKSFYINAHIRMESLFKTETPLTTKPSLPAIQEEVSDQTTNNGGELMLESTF
# T4 sequence (Q9H1C0 whole entry): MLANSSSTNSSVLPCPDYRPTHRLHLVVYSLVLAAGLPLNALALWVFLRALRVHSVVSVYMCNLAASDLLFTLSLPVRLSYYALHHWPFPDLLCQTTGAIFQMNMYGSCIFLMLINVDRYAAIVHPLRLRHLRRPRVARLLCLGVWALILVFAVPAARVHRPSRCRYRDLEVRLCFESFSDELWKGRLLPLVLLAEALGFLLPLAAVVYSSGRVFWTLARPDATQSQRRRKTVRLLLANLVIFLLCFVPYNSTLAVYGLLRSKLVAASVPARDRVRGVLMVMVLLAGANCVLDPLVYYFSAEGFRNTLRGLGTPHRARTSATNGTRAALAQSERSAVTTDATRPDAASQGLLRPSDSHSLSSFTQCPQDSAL
compound,measurement,setting,value
"lysophosphatidic acid [LPA, reference compound]",LPA EC80,human LPAR2,5 µM
same,LPA EC80,human LPAR3,10 µM
same,LPA EC80,human LPAR4,10 µM
same,LPA EC80,human LPAR5,1 µM
same,LPA EC80,human LPAR6,13 µM
same,LPA EC80,LPAR1,5 µM
[O-][S+]1CCc2nc(N3CCC(c4ncc(Cl)cn4)CC3)nc(NC3(CO)CCC3)c21 (centres unmarked) [nerandomilast],COL3A1 mRNA expression vs vehicle,"[1]; 10 µM, P 0.1621 (not significant)",reduces
same,TIMP1 mRNA expression vs vehicle,"[1]; 10 µM, P 0.6976 (not significant)",reduces
same,SERPINE1 mRNA expression vs vehicle,"[1]; 10 µM, P 0.8986 (not significant)",reduces
same,COL1A1 mRNA expression vs vehicle,"[1]; 10 µM, P < 0.05",significantly less
"COC(=O)c1ccc2c(c1)NC(=O)/C2=C(\Nc1ccc(N(C)C(=O)CN2CCN(C)CC2)cc1)c1ccccc1 [nintedanib, reference compound]",secreted C3M,[2],significant reduction
same,secreted Pro-C3,[2],did not show a significant decrease
same,secreted Pro-C6,[2],reduced
COCCN(CCCCc1ccc2c(n1)NCCC2)CC[C@H](Nc1ncnc2ccccc12)C(=O)O [bexotegrast],COL3A1 mRNA expression vs vehicle,"[1]; 300 nM, P 0.1827 (not significant)",reduces
same,SERPINE1 mRNA expression vs vehicle,"[1]; 300 nM, P 0.4056 (not significant)",reduces
same,LPAR1 mRNA expression vs vehicle,"[1]; 300 nM, P 0.8283",unchanged
same,COL1A1 mRNA expression vs vehicle,"[1]; 300 nM, P < 0.05",significantly less
same,TIMP-1 mRNA expression vs vehicle,"[1]; 300 nM, P < 0.05",significantly lower
"Cc1noc(-c2ccc(-c3ccc(C4(C(=O)O)CC4)cc3)cc2)c1NC(=O)O[C@H](C)c1ccccc1 [BMS-986020, reference compound]",lung hydroxyproline compared to bleomycin/vehicle,[3],no reduction in hydroxyproline
same,"reduction in tissue collagen fraction (TCF), trichrome",[3]; p = 0.2723,62%
